From paper PMC3236098 (Bioorganic & medicinal chemistry, 2011)

Assays:
mTAAR1 = conditions: read-out: EC50 Mouse TAAR1; cited from earlier work
rTAAR1 = conditions: read-out: EC50 Rat TAAR1; cited from earlier work
DAT = conditions: read-out: EC50 in rat synaptosomes; reference not given; cited from earlier work
[1] = cited from earlier work; for excitation in humans: doses of 100 mg (or greater)
hTAAR1 = molecular target: T1, hTAAR1 (Homo sapiens, UniProt Q96RJ0); format: cell-based
T1 sequence (Q96RJ0 1-339): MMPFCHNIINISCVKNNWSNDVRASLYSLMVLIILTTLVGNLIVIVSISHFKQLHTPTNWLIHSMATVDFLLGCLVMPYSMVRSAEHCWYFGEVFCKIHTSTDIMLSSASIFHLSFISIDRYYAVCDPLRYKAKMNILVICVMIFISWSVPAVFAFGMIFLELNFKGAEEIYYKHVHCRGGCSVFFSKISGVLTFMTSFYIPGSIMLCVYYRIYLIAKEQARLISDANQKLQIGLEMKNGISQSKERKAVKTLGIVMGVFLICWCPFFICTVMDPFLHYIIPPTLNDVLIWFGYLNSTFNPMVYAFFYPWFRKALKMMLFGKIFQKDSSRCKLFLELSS

C[C@@H](N)Cc1ccccc1 [(R)-1, (R)-amphetamine]
EC50 (mTAAR1): 65 ± 53 nM | EC50 (rTAAR1): 1400 ± 600 nM

C[C@H](N)Cc1ccccc1 [(S)-1, (S)-amphetamine]
EC50 (mTAAR1): 2 ± 1 nM | EC50 (DAT): […] | EC50 (rTAAR1): 1200 ± 70 nM

C[C@H](N)Cc1ccc2c(c1)OCO2 [(S)-3, (S)-3,4-methylenedioxyamphetamine]
excitation in humans [1]: excitation

CN[C@@H](C)Cc1ccc2c(c1)OCO2 [(S)-4, (S)-3,4-methylenedioxymethamphetamine]
excitation in humans [1]: excitation

C[C@H](N)Cc1cccc(C(F)(F)F)c1 [(S)-6, (S)-norfenfluramine]
EC50 Human, potency to activate TAAR1 (hTAAR1): active ^*

COc1cc(C[C@H](C)N)c(OC)cc1Br [(S)-7, (S)-4-bromo-2,5-dimethoxyamphetamine]
effect in humans ([1]; doses of 0.5–1.0 mg): no effect

COc1cc(C[C@H](C)N)c(OC)cc1C [(S)-8, (S)-4-methyl-2,5-dimethoxyamphetamine]
agonist activity at hTAAR1 (in words) (hTAAR1): lack of observed agonist activity
